Data: US20230150974A1 (Foghorn Therapeutics Inc., priority 2020, published 2023)

How the values were obtained:
HiBiT-BRM = target: T1, HiBiT-BRM (Homo sapiens, UniProt P51531); experiment: HiBiT-BRM cell-based degradation assay (Nano-Glo HiBiT Lytic Detection); conditions: HeLa cells expressing HiBiT-BRM, 24 h; for DC50: read-out: BRM HiBit Degradation IC50
T1 construct: expressed in transfected cells
How it was run: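 HeLa cells stably expressing HiBiT-tagged BRM were treated for 24 h, then lysed with LgBiT-containing Nano-Glo reagent and luminescence read. % degradation scaled between DMSO (high control) and 2 μM reference BRM/BRG1 degrader (low control).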

HiBit-BRG1 = target: T2, HiBit-BRG1 (Homo sapiens, UniProt P51532); experiment: HiBit-BRG1 cell-based degradation assay (Nano-Glo HiBiT Lytic Detection); conditions: HeLa cells expressing HiBit-BRG1 and LgBit, 24 h; for DC50: read-out: BRG1 HiBit Degradation IC50; for Dmax: read-out: BRG1 HiBit Degradation Maximum (%)
T2 construct: expressed in transfected cells
How it was run: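 HeLa cells stably expressing HiBiT-BRG1 plus LgBit, 5000/well, treated 24 h, then lysed with Nano-Glo HiBiT lytic reagent and luminescence read. % degradation normalised between DMSO (high control) and 2 μM reference BRM/BRG1 degrader (low control).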

T1 sequence (P51531 whole entry): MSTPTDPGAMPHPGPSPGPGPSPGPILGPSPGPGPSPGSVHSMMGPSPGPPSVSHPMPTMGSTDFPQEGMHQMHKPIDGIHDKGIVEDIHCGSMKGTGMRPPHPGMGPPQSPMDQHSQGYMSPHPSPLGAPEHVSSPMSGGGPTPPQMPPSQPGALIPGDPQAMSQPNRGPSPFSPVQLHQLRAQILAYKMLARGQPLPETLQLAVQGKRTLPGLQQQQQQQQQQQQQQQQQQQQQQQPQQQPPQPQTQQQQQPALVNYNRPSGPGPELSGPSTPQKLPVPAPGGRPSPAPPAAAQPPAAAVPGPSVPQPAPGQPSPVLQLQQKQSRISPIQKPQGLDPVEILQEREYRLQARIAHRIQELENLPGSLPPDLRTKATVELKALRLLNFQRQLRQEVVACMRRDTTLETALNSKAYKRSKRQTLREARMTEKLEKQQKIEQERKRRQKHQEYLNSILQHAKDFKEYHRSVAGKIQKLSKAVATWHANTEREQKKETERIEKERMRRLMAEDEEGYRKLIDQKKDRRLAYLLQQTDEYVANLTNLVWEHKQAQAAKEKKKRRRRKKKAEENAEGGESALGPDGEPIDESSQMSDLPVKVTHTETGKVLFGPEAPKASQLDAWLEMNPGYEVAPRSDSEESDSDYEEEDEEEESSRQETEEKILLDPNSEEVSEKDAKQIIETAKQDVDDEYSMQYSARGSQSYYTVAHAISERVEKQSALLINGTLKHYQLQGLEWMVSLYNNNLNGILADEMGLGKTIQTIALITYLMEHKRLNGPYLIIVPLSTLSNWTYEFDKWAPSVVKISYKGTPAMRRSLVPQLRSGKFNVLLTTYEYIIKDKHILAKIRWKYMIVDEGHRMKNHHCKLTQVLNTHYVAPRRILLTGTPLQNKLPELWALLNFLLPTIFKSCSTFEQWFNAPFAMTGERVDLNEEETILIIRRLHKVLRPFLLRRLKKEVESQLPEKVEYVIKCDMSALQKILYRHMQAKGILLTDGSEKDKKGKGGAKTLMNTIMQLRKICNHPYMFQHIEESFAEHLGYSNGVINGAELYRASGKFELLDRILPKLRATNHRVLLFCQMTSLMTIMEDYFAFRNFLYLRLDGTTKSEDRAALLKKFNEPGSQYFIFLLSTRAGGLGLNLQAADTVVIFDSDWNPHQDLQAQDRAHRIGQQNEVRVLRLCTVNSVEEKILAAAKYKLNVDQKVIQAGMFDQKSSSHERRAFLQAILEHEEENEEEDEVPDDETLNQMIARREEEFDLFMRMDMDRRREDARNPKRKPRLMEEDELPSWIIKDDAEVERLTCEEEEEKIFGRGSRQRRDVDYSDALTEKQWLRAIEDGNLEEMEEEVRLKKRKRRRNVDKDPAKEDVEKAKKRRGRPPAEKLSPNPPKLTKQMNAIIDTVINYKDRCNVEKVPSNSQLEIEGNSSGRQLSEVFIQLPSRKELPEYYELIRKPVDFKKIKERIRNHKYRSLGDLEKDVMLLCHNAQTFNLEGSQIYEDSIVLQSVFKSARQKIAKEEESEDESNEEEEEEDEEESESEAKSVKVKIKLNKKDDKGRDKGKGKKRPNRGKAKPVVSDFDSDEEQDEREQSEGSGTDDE
T2 sequence (P51532 whole entry): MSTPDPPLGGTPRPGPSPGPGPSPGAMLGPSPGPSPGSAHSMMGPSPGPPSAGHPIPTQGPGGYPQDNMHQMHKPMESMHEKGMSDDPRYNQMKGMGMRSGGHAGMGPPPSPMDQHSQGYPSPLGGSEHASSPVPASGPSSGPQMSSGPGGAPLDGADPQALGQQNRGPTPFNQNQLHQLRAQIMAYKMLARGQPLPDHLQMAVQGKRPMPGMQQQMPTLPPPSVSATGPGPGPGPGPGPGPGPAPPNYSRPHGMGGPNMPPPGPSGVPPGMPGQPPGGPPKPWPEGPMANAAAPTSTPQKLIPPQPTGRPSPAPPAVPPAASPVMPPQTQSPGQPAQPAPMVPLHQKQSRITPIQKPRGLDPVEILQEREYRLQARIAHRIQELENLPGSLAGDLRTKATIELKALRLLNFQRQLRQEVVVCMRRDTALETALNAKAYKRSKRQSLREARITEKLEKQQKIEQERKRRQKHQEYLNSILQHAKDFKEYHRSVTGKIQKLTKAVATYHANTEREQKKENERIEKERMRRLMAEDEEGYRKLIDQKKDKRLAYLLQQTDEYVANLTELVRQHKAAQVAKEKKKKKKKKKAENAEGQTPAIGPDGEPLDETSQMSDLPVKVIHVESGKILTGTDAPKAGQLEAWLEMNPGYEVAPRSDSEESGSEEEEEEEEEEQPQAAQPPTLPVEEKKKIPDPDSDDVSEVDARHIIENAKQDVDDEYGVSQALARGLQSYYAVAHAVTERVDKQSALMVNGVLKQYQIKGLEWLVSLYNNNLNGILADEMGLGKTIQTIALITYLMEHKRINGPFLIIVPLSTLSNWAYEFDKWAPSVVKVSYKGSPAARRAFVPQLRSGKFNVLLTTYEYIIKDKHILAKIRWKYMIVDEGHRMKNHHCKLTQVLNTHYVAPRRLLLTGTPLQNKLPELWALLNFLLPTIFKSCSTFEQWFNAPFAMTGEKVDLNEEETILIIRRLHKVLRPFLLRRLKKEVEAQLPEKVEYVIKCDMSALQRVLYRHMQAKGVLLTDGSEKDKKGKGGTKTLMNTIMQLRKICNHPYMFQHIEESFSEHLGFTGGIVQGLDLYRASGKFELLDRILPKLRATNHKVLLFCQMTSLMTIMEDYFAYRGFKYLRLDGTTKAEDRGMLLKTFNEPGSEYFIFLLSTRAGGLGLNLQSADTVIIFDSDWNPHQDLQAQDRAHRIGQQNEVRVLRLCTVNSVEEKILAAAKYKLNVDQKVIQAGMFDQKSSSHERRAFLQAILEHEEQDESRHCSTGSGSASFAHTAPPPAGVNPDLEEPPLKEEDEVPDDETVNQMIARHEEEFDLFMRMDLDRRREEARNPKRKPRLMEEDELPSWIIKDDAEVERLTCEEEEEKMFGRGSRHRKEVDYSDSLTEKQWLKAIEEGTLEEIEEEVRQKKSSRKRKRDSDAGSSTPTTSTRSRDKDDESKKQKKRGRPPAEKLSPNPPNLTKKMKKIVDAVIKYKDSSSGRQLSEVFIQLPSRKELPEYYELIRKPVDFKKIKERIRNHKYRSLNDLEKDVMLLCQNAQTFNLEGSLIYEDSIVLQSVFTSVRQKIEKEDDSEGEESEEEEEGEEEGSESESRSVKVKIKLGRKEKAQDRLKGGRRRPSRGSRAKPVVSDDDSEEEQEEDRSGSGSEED

Structure (SMILES)	BRM HiBit Degradation Maximum (%) (HiBiT-BRM)	DC50 (HiBiT-BRM)	DC50 (HiBit-BRG1)	Dmax (HiBit-BRG1)
Cc1ncsc1-c1ccc(CNC(=O)[C@@H]2C[C@@H](O)CN2C(=O)[C@@H](NC(=O)CCN2CCC(OC3CN(C(=O)c4ccc(CCOc5cc(-c6ccccc6O)nnc5N)cc4)C3)CC2)C(C)(C)C)cc1 [Compound 245, (2S,4R)-1-((S)-2-(3-(4-((1-(4-(2-((3-amino-6-(2-hydroxyphenyl)pyridazin-4-yl)oxy)ethyl)benzoyl)azetidin-3-yl)oxy)piperidin-1-yl)propanamido)-3,3-dimethylbutanoyl)-4-hydroxy-N-(4-(4-methylthiazol-5-yl)benzyl)pyrrolidine-2-carboxamide]	B (“B” indicates maximum degradation ≥50%)	> 1000 nM	> 1000 nM	< 50%
Nc1nnc(-c2ccccc2O)cc1OCCc1ccc(C(=O)NCCCCCOc2cccc3c2C(=O)N(C2CCC(=O)NC2=O)C3=O)cc1 (stereo not drawn) [Compound 21, 4-(2-[[3-amino-6-(2-hydroxyphenyl)pyridazin-4-yl]oxy]ethyl)-N-(5-[[2-(2,6-dioxopiperidin-3-yl)-1,3-dioxoisoindol-4-yl]oxy]pentyl)benzamide]	B (“B” indicates maximum degradation ≥50%)	> 100 nM	> 1000 nM	< 50%
Nc1nnc(-c2ccccc2O)cc1OCCc1ccc(CNCCCCOc2cccc3c2C(=O)N(C2CCC(=O)NC2=O)C3=O)cc1 (stereo not drawn) [Compound 121, 4-(4-((4-(2-((3-amino-6-(2-hydroxyphenyl)pyridazin-4-yl)oxy)ethyl)benzyl)amino)butoxy)-2-(2,6-dioxopiperidin-3-yl)isoindoline-1,3-dione]	C (“C” indicates maximum degradation <50%)	> 1000 nM	> 1000 nM	< 50%
Nc1nnc(-c2ccccc2O)cc1OCCc1ccc(CNCCN2CCN(c3cccc4c3C(=O)N(C3CCC(=O)NC3=O)C4=O)CC2)cc1 (stereo not drawn) [Compound 110, 4-[4-[2-([[4-(2-[[3-amino-6-(2-hydroxyphenyl)pyridazin-4-yl]oxy]ethyl)phenyl]methyl]amino)ethyl]piperazin-1-yl]-2-(2,6-dioxopiperidin-3-yl)isoindole-1,3-dione]	A (“A” indicates maximum degradation ≥75%)	> 10 nM	> 100 nM	> 50%
Nc1nnc(-c2ccccc2O)cc1OCCc1ccc(CNC(=O)COc2cccc3c2C(=O)N(C2CCC(=O)NC2=O)C3=O)cc1 (stereo not drawn) [Compound 62, N-[[4-(2-[[3-amino-6-(2-hydroxyphenyl)pyridazin-4-yl]oxy]ethyl)phenyl]methyl]-2-[[2-(2,6-dioxopiperidin-3-yl)-1,3-dioxoisoindol-4-yl]oxy]acetamide]	C (“C” indicates maximum degradation <50%)	> 1000 nM	> 100 nM	> 50%
Cc1ncsc1-c1ccc(CNC(=O)[C@@H]2C[C@@H](O)CN2C(=O)[C@@H](NC(=O)CCCCCCCCCNC(=O)c2ccc(CCNc3cc(-c4ccccc4O)nnc3N)cc2)C(C)(C)C)cc1 [Compound 134, (2S,4R)-1-[(2S)-2-(10-[[4-(2-[[3-amino-6-(2-hydroxyphenyl)pyridazin-4-yl]amino]ethyl)phenyl]formamido]decanamido)-3,3-dimethylbutanoyl]-4-hydroxy-N-[[4-(4-methyl-1,3-thiazol-5-yl)phenyl]methyl]pyrrolidine-2-carboxamide]	B (“B” indicates maximum degradation ≥50%)	> 100 nM	> 1000 nM	< 50%
Cc1ncsc1-c1ccc(CNC(=O)[C@H]2C[C@H](O)CN2C(=O)[C@H](NC(=O)CCCCCNC(=O)CN2CCN(c3cc(-c4ccccc4O)nnc3N)CC2)C(C)(C)C)cc1 (stereo in doubt) [Compound 101, (2R,4S)-1-[(2R)-2-[6-(2-[4-[3-amino-6-(2-hydroxyphenyl)pyridazin-4-yl]piperazin-1-yl]acetamido)hexanamido]-3,3-dimethylbutanoyl]-4-hydroxy-N-[[4-(4-methyl-1,3-thiazol-5-yl)phenyl]methyl]pyrrolidine-2-carboxamide]	B (“B” indicates maximum degradation ≥50%)	> 1000 nM	> 1000 nM	< 50%
Cc1ncsc1-c1ccc(CNC(=O)[C@@H]2C[C@@H](O)CN2C(=O)[C@@H](NC(=O)CCCCCCCCCCCCC(=O)NCc2ccc(CCOc3cc(-c4ccccc4O)nnc3N)cc2)C(C)(C)C)cc1 [Compound 36]	B (“B” indicates maximum degradation ≥50%)	> 10 nM	> 1000 nM	< 50%
Cc1ncsc1-c1ccc(CNC(=O)[C@@H]2C[C@@H](O)CN2C(=O)[C@@H](NC(=O)CCCCCCCCCCC(=O)NCc2ccc(CCOc3cc(-c4ccccc4O)nnc3N)cc2)C(C)(C)C)cc1 [Compound 37]	B (“B” indicates maximum degradation ≥50%)	> 100 nM	> 1000 nM	< 50%
Cc1ncsc1-c1ccc(CNC(=O)[C@@H]2C[C@@H](O)CN2C(=O)[C@@H](NC(=O)CCCCCCCCCCCCCCC(=O)N(C)Cc2ccc(CCOc3cc(-c4ccccc4O)nnc3N)cc2)C(C)(C)C)cc1 [Compound 223, N1-(4-(2-((3-amino-6-(2-hydroxyphenyl)pyridazin-4-yl)oxy)ethyl)benzyl)-N16-((S)-1-((2S,4R)-4-hydroxy-2-((4-(4-methylthiazol-5-yl)benzyl)carbamoyl)pyrrolidin-1-yl)-3,3-dimethyl-1-oxobutan-2-yl)-N1-methylhexadecanediamide]	A (“A” indicates maximum degradation ≥75%)	> 100 nM	> 1000 nM	< 50%
Cc1ncsc1-c1ccc([C@H](C)NC(=O)[C@@H]2C[C@@H](O)CN2C(=O)[C@@H](NC(=O)CCN2CCC3(CCN(CCC(=O)NCc4ccc(CCOc5cc(-c6ccccc6O)nnc5N)cc4)CC3)CC2)C(C)(C)C)cc1 [Compound 250, (2S,4R)-1-((S)-2-(3-(9-(3-((4-(2-((3-amino-6-(2-hydroxyphenyl)pyridazin-4-yl)oxy)ethyl)benzyl)amino)-3-oxopropyl)-3,9-diazaspiro[5.5]undecan-3-yl)propanamido)-3,3-dimethylbutanoyl)-4-hydroxy-N-((S)-1-(4-(4-methylthiazol-5-yl)phenyl)ethyl)pyrrolidine-2-carboxamide]	B (“B” indicates maximum degradation ≥50%)	> 1000 nM	> 1000 nM	< 50%
Cc1ncsc1-c1ccc([C@H](C)NC(=O)[C@@H]2C[C@@H](O)CN2C(=O)[C@@H](c2cc(OCCN3CC(C4CN(C(=O)c5ccc(CCOc6cc(-c7ccccc7O)nnc6N)cc5)C4)C3)no2)C(C)C)cc1 [Compound 222, (2S,4R)-1-((R)-2-(3-(2-(1′-(4-(2-((3-amino-6-(2-hydroxyphenyl)pyridazin-4-yl)oxy)ethyl)benzoyl)-[3,3'-biazetidin]-1-yl)ethoxy)isoxazol-5-yl)-3-methylbutanoyl)-4-hydroxy-N-((S)-1-(4-(4-methylthiazol-5-yl)phenyl)ethyl)pyrrolidine-2-carboxamide]	A (“A” indicates maximum degradation ≥75%)	> 100 nM	> 100 nM	> 75%
